Results from ChEMBL document CHEMBL3272315, “Synthesis of angiotensin II antagonists containing N- and O-methylated and other amino acid residues” (J Med Chem, 1976).
Non-standard residues stand in square brackets, D forms with d. Residues, ends and D or L forms follow the SMILES beside them. Sar = CNCC(=O)O

Tests used:
Rattus norvegicus [1] = species: Rattus norvegicus; assay: Induction of pressor in vagotomized and ganglion-blocked rat assessed as initial pressor activity relative to angiotensin 2; format: functional
Felis catus = species: Felis catus; assay: Agonist activity at angiotensin AT2 receptor in isolated cat adrenal medulla assessed as secretory activity relative to angiotensin 2; format: tissue-based
[2] = Antagonist activity at angiotensin AT2 receptor in rabbit aortic strips assessed as inhibition of angiotensin 2- myotropic mediated response; settings: Oryctolagus cuniculus; read-out: pA2 (converted)
[3] = Antagonist activity at angiotensin AT2 receptor in isolated cat adrenal medulla; format: tissue-based, Felis catus
Rattus norvegicus [4] = assay: Induction of blood pressure in vagotomized and ganglion-blocked rat at 250 ng/kg/min, iv measured at 3 mins; format: functional
Rattus norvegicus [5] = assay: Induction of blood pressure in vagotomized and ganglion-blocked rat at 250 ng/kg/min, iv measured at 10 mins; format: functional
Rattus norvegicus [6] = assay: Induction of blood pressure in vagotomized and ganglion-blocked rat at 250 ng/kg/min, iv measured at 30 mins; format: functional
Rattus norvegicus [7] = assay: Induction of blood pressure in rat at 250 ng/kg/min, iv measured at 3 mins (reference value: 0.78 +/- 0.26 mmHg); format: functional
Rattus norvegicus [8] = assay: Induction of blood pressure in rat at 250 ng/kg/min, iv measured at 30 mins (reference value: 3.66 +/- 0.74 mmHg); format: functional
Rattus norvegicus [9] = assay: Induction of blood pressure in acute adrenalectomized rat at 250 ng/kg/min, iv measured at 3 mins (reference value: 0.78 +/- 0.26 mmHg); format: functional
Rattus norvegicus [10] = assay: Induction of blood pressure in acute adrenalectomized rat at 250 ng/kg/min, iv measured at 30 mins (reference value: 3.66 +/- 0.74 mmHg); format: functional
Rattus norvegicus [11] = assay: Induction of blood pressure in acute adrenalectomized rat at 250 ng/kg/min, iv measured at 3 mins in presence of propranolol (reference value: 0.78 +/- 0.26 mmHg); format: functional
Rattus norvegicus [12] = assay: Induction of blood pressure in acute adrenalectomized rat at 250 ng/kg/min, iv measured at 30 mins in presence of propranolol (reference value: 3.66 +/- 0.74 mmHg); format: functional
Rattus norvegicus [13] = assay: Potentiation of angiotensin 2-induced of blood pressure in vagotomized and ganglion-blocked rat at 250 ng/kg/min, iv relative to before compound infusion; format: functional
Rattus norvegicus [14] = assay: Potentiation of angiotensin 2-induced blood pressure in rat at 250 ng/kg/min, iv relative to before compound infusion; format: functional
Rattus norvegicus [15] = assay: Potentiation of angiotensin 2-induced blood pressure in acute adrenalectomized rat at 250 ng/kg/min, iv relative to before compound infusion; format: functional
Rattus norvegicus [16] = assay: Potentiation of angiotensin 2-induced blood pressure in acute adrenalectomized rat at 250 ng/kg/min, iv in presence of propranolol relative to before compound infusion; format: functional
Rattus norvegicus [17] = species: Rattus norvegicus; assay: Induction of pressor in vagotomized and ganglion-blocked rat assessed as initial pressor activity up to 10 ug/ml relative to angiotensin 2; format: functional
Rattus norvegicus [18] = assay: Induction of blood pressure in vagotomized and ganglion-blocked rat at 6000 ng/kg/min, iv measured at 3 mins; format: functional
Rattus norvegicus [19] = assay: Induction of blood pressure in vagotomized and ganglion-blocked rat at 6000 ng/kg/min, iv measured at 10 mins; format: functional
Rattus norvegicus [20] = assay: Induction of blood pressure in vagotomized and ganglion-blocked rat at 6000 ng/kg/min, iv measured at 30 mins; format: functional
Rattus norvegicus [21] = assay: Potentiation of angiotensin 2-induced of blood pressure in vagotomized and ganglion-blocked rat at 6000 ng/kg/min, iv relative to before compound infusion; format: functional
Rattus norvegicus [22] = assay: Induction of blood pressure in sham operated rat at 250 ng/kg/min, iv measured at 3 mins (reference value: 0.78 +/- 0.26 mmHg); format: functional
Rattus norvegicus [23] = assay: Induction of blood pressure in sham operated rat at 250 ng/kg/min, iv measured at 30 mins (reference value: 3.66 +/- 0.74 mmHg); format: functional
Rattus norvegicus [24] = assay: Potentiation of angiotensin 2-induced blood pressure in sham operated rat at 250 ng/kg/min, iv relative to before compound infusion; format: functional
Rattus norvegicus [25] = assay: Induction of blood pressure in rat at 250 ng/kg/min, iv measured at 3 mins in presence of propranolol (reference value: 0.78 +/- 0.26 mmHg); format: functional
Rattus norvegicus [26] = assay: Induction of blood pressure in rat at 250 ng/kg/min, iv measured at 30 mins in presence of propranolol (reference value: 3.66 +/- 0.74 mmHg); format: functional
Rattus norvegicus [27] = assay: Induction of blood pressure in 6 days adrenalectomized rat at 250 ng/kg/min, iv measured at 3 mins (reference value: 0.78 +/- 0.26 mmHg); format: functional
Rattus norvegicus [28] = assay: Induction of blood pressure in 6 days adrenalectomized rat at 250 ng/kg/min, iv measured at 30 mins (reference value: 3.66 +/- 0.74 mmHg); format: functional
Rattus norvegicus [29] = assay: Induction of blood pressure in chronic adrenalectomized rat at 250 ng/kg/min, iv measured at 3 mins (reference value: 0.78 +/- 0.26 mmHg); format: functional
Rattus norvegicus [30] = assay: Induction of blood pressure in chronic adrenalectomized rat at 250 ng/kg/min, iv measured at 30 mins (reference value: 3.66 +/- 0.74 mmHg); format: functional
Rattus norvegicus [31] = assay: Potentiation of angiotensin 2-induced blood pressure in 6 days adrenalectomized rat at 250 ng/kg/min, iv in presence of propranolol relative to before compound infusion; format: functional
Rattus norvegicus [32] = assay: Potentiation of angiotensin 2-induced blood pressure in chronic adrenalectomized rat at 250 ng/kg/min, iv in presence of propranolol relative to before compound infusion; format: functional

Row | Activity (Felis catus) | pA2 [3] | Compound | Activity (Rattus norvegicus [1]) | Kb [2] | Activity (Rattus norvegicus [4]) | Activity (Rattus norvegicus [5]) | Activity (Rattus norvegicus [6]) | Activity (Rattus norvegicus [7]) | Activity (Rattus norvegicus [8]) | Activity (Rattus norvegicus [9]) | Activity (Rattus norvegicus [10]) | Ratio (Rattus norvegicus [13]) | Ratio (Rattus norvegicus [14]) | Ratio (Rattus norvegicus [15]) | also measured
1 | 0.1% | 8 | CC[C@H](C)[C@H](NC(=O)[C@H](Cc1ccc(O)cc1)NC(=O)[C@@H](NC(=O)[C@H](CCCNC(=N)N)NC(=O)CNC)C(C)C)C(=O)N[C@@H](Cc1cnc[nH]1)C(=O)N1CCC[C@H]1C(=O)N(C)[C@H](C(=O)O)[C@@H](C)CC | 1.06% | 14.1 nM | 25.1 mmHg | 36 mmHg | 32 mmHg | 25.1 mmHg | 32 mmHg | 24.66 mmHg | 30.33 mmHg | 2.99 | 2.99 | 2.53 | Activity (Rattus norvegicus [11]): 21 mmHg; Activity (Rattus norvegicus [12]): 17.71 mmHg; Ratio (Rattus norvegicus [16]): 2.56
2 | 0.05% | 9.33 | CC[C@H](C)[C@H](NC(=O)[C@H](Cc1ccc(O)cc1)NC(=O)[C@@H](NC(=O)[C@H](CCCNC(=N)N)NC(=O)CNC)C(C)C)C(=O)N[C@@H](Cc1cnc[nH]1)C(=O)N1CCC[C@H]1C(=O)N[C@@H](CO)C(=O)O (H-[Sar]RVYIHPS-OH) | 0.66% | 8.32 nM | 9.57 mmHg | 9.57 mmHg | 11.42 mmHg |  |  |  |  | 11.15 |  |  | 
3 | < 0.01% | 8 | CC[C@H](C)[C@@H](C(=O)N[C@@H](Cc1cnc[nH]1)C(=O)N1CCC[C@H]1C(=O)N(C)[C@H](C(=O)O)[C@@H](C)CC)N(C)C(=O)[C@H](Cc1ccc(O)cc1)NC(=O)[C@@H](NC(=O)[C@H](CCCNC(=N)N)NC(=O)CNC)C(C)C |  | 12.9 nM | 1 mmHg | 3.2 mmHg | 7 mmHg |  |  |  |  | 0.62 |  |  | Activity (Rattus norvegicus [17]): 0%; Activity (Rattus norvegicus [18]): 2.5 mmHg; Activity (Rattus norvegicus [19]): 3.16 mmHg; Activity (Rattus norvegicus [20]): 7.33 mmHg; Ratio (Rattus norvegicus [21]): 0.82
4 | 0.11% | 9.16 | CC[C@H](C)[C@H](NC(=O)[C@@H]1CCCN1C(=O)[C@H](Cc1cnc[nH]1)NC(=O)[C@@H](NC(=O)[C@H](Cc1ccc(O)cc1)N(C)C(=O)[C@@H](NC(=O)[C@H](CCCNC(=N)N)NC(=O)CNC)C(C)C)[C@@H](C)CC)C(=O)O | 0.34% | 36.3 nM | 8 mmHg | 10 mmHg | 9.8 mmHg |  |  |  |  | 2.14 |  |  | Activity (Rattus norvegicus [18]): 39.2 mmHg; Activity (Rattus norvegicus [19]): 21.6 mmHg; Activity (Rattus norvegicus [20]): 14.4 mmHg; Ratio (Rattus norvegicus [21]): 12.09
5 | < 0.01% | 9.16 | CC[C@H](C)[C@H](NC(=O)[C@H](Cc1ccc(O)cc1)NC(=O)[C@@H](NC(=O)[C@H](CCCNC(=N)N)NC(=O)CNC)C(C)C)C(=O)N[C@@H](Cc1cnc[nH]1)C(=O)N1CCC[C@H]1C(=O)N[C@@H](CCSC)C(=O)O (H-[Sar]RVYIHPM-OH) | 3.74% | 2.34 nM | 36.75 mmHg | 36.75 mmHg | 32.5 mmHg |  |  |  |  |  |  |  | 
6 | 0.1% | 7 | CC[C@H](C)[C@H](NC(=O)[C@H](Cc1ccc(O)cc1)NC(=O)[C@@H](NC(=O)[C@H](CCCNC(=N)N)NC(=O)CNC)C(C)C)C(=O)N[C@@H](Cc1cnc[nH]1)C(=O)N1CCC[C@H]1C(=O)N[C@H](C(=O)O)[C@@H](C)OC |  |  |  |  |  | 13.82 mmHg | 15.63 mmHg | 7.75 mmHg | 7.62 mmHg |  | 62.52 | 22.96 | Activity (Rattus norvegicus [22]): 19.25 mmHg; Activity (Rattus norvegicus [23]): 11 mmHg; Ratio (Rattus norvegicus [24]): 45.86; Activity (Rattus norvegicus [25]): 11.5 mmHg; Activity (Rattus norvegicus [26]): -1.25 mmHg; Activity (Rattus norvegicus [27]): 3 mmHg; Activity (Rattus norvegicus [28]): -0.4 mmHg; Activity (Rattus norvegicus [29]): 5 mmHg; Activity (Rattus norvegicus [30]): 2.25 mmHg; Ratio (Rattus norvegicus [16]): 54.16; Ratio (Rattus norvegicus [31]): 11.61; Ratio (Rattus norvegicus [32]): 12.06
7 | 3% | 9.5 | CC[C@H](C)[C@H](NC(=O)[C@@H]1CCCN1C(=O)[C@H](Cc1c[nH]cn1)NC(=O)[C@@H](NC(=O)[C@H](Cc1ccc(O)cc1)NC(=O)[C@@H](NC(=O)[C@H](CCCN=C(N)N)NC(=O)CNC)C(C)C)[C@@H](C)CC)C(=O)O |  | 0.676 nM |  |  |  | 17.81 mmHg | 14.81 mmHg | 8.9 mmHg | 1.8 mmHg |  | 27.79 | 6.04 | 
8 | 1.01% | 8.16 | CC[C@H](C)[C@H](NC(=O)[C@@H]1CCCN1C(=O)[C@H](Cc1cnc[nH]1)NC(=O)[C@@H](NC(=O)[C@H](Cc1ccc(O)cc1)NC(=O)[C@@H](NC(=O)[C@H](CCCNC(=N)N)NC(=O)[C@H](CC(=O)O)NC)C(C)C)[C@@H](C)CC)C(=O)O | 0.76% | 1.82 nM | 10.14 mmHg | 16.57 mmHg | 16.57 mmHg |  |  |  |  | 33.43 |  |  | 
9 | 0.01% | 9.31 | CC[C@H](C)[C@H](NC(=O)[C@@H]1CCCN1C(=O)[C@H](Cc1c[nH]cn1)NC(=O)[C@H]([C@@H](C)CC)N(C)C(=O)[C@H](Cc1ccc(O)cc1)NC(=O)[C@@H](NC(=O)[C@H](CCCN=C(N)N)NC(=O)CNC)C(C)C)C(=O)O | 0.46% | 22.9 nM | 15.66 mmHg | 23 mmHg | 22.8 mmHg |  |  |  |  | 3.26 |  |  | 
10 | 0% | 9 | CC[C@H](C)[C@H](NC(=O)[C@H](Cc1ccc(O)cc1)NC(=O)[C@@H](NC(=O)[C@H](CCCN=C(N)N)NC(=O)CNC)C(C)C)C(=O)N[C@@H](Cc1c[nH]cn1)C(=O)N1CCC[C@H]1C(=O)N[C@H](C(=O)O)[C@@H](C)O (H-[Sar]RVYIHPT-OH) |  |  |  |  |  | 9.46 mmHg | 9.2 mmHg | 7.57 mmHg | 4.57 mmHg | 26.9 |  | 5.52 | 
